Assay results as given in patent US6930185B2, “Melanin-concentrating hormone antagonist” (Takeda Chemical Industries, Ltd., priority 2000, dated 2005).

With `O=C(Oc1ccc2cc(CN3CCCC3)ccc2c1)N1CCC(c2ccc(Cl)cc2)CC1` as the compound, how does the melting point read?
Its melting point is 121 to 123 °C.

For `COc1ccc(C2CCN(C(=O)Oc3ccc4cc(CN5CCCC5)ccc4c3)CC2)cc1`, which melting point is on record?
The melting point was 127 to 129 °C.

For `Cc1ccc(C2CCN(C(=O)Oc3ccc4cc(CN5CCCC5)ccc4c3)CC2)cc1`, which melting point is on record?
Its melting point is 238 to 240 °C.

With `O=C(Oc1ccc2cc(CN3CCCC3)ccc2c1)N1CCC(c2ccc(F)cc2)CC1` as the compound, how does the melting point read?
The melting point was 106 to 108 °C.

For `Cl.O=C(Oc1ccc2cc(CN3CCCC3)ccc2c1)N1CCC(c2ccccc2)CC1`, which melting point is on record?
The melting point was 213 to 215 °C.

For `O=C(Nc1ccc2nc(CN3CCCCC3)ccc2c1)c1ccc(-c2ccc(F)cc2F)cc1` (hydrate or solvate) [Example 68, 2′,4′-Difluoro-N-[2-(1-piperidinylmethyl)-6-quinolinyl][1,1′-biphenyl]-4-carboxamide], which melting point is on record?
Its melting point is 181 to 182 °C.

Which melting point does the source give for `O=C(Nc1ccc2cc(CN3CCCC3)ccc2c1)c1ccc(-c2ccc(Cl)cc2)cc1` [Example 2, 4′-Chloro-N-[6-(1-pyrrolidinylmethyl)-2-naphthyl][1,1′-biphenyl]-4-carboxamide] here?
Its melting point is 214 to 217 °C.

Which melting point does the source give for `CN(C)Cc1ccc2cc(NC(=O)c3ccc(-c4ccc(Cl)cc4)cc3)ccc2n1` [Example 6, 4′-Chloro-N-[2-[(N,N-dimethylamino)methyl]-6-quinolinyl][1,1′-biphenyl]-4-carboxamide] here?
Its melting point is 219 to 221 °C.

Which melting point does the source give for `O=C(Nc1ccc2nc(CN3CCCC3)ccc2c1)c1ccc(-c2ccc(F)cc2)cc1` [Example 7, 4′-Fluoro-N-[2-(1-pyrrolidinylmethyl)-6-quinolinyl][1,1′-biphenyl]-4-carboxamide] here?
Its melting point is 190 to 193 °C.

Which melting point does the source give for `O=C(Nc1ccc2nc(CN3CCCC3)ccc2c1)c1ccc(-c2ccc(Cl)cc2)cc1` [Example 8, 4′-Chloro-N-[2-(1-pyrrolidinylmethyl)-6-quinolinyl][1,1′-biphenyl]-4-carboxamide] here?
The melting point was 200 to 202 °C.

Which melting point does the source give for `O=C(Nc1ccc2nc(CN3CCCCC3)ccc2c1)c1ccc(-c2ccc(F)cc2)cc1` [Example 9, 4′-Fluoro-N-[2-(1-piperidinylmethyl)-6-quinolinyl][1,1′-biphenyl]-4-carboxamide] here?
The melting point was 202 to 204 °C.

With `O=C(Nc1ccc2nc(CN3CCCCC3)ccc2c1)c1ccc(-c2ccc(Cl)cc2)cc1` [Example 10, 4′-Chloro-N-[2-(1-piperidinylmethyl)-6-quinolinyl][1,1′-biphenyl]-4-carboxamide] as the compound, how does the melting point read?
The melting point was 211 to 213 °C.

For `O=C(Nc1ccc2nc(CN3CCOCC3)ccc2c1)c1ccc(-c2ccc(Cl)cc2)cc1` [Example 11, 4′-Chloro-N-[2-(4-morpholinylmethyl)-6-quinolinyl][1,1′-biphenyl]-4-carboxamide], which melting point is on record?
Its melting point is 236 to 238 °C.

For `O=C(Nc1ccc2nc(CN3CCOCC3)ccc2c1)c1ccc(-c2ccccc2)cc1` [Example 12, N-[2-(4-Morpholinylmethyl)-6-quinolinyl][1,1′-biphenyl]-4-carboxamide], which melting point is on record?
Its melting point is 214 to 215 °C.

For `O=C(Nc1ccc2nc(CN3CCOCC3)ccc2c1)c1ccc(-c2ccc(F)cc2)cc1` [Example 13, 4′-Fluoro-N-[2-(4-morpholinylmethyl)-6-quinolinyl][1,1′-biphenyl]-4-carboxamide], which melting point is on record?
Its melting point is 211 to 212 °C.

Which melting point does the source give for `Cc1ccc(-c2ccc(C(=O)Nc3ccc4nc(CN5CCOCC5)ccc4c3)cn2)cc1` [Example 14, 6-(4-Methylphenyl)-N-[2-(4-morpholinylmethyl)-6-quinolinyl]nicotinamide] here?
The melting point was 214 to 216 °C.

Which melting point does the source give for `CN(C)Cc1ccc2cc(NC(=O)c3ccc(-c4ccccc4)cc3)ccc2n1` [Example 15, N-[2-[(Dimethylamino)methyl]-6-quinolinyl][1,1′-biphenyl]-4-carboxamide] here?
Its melting point is 191 to 194 °C.

For `CN(C)Cc1ccc2cc(NC(=O)c3ccc(-c4ccc(F)cc4)cc3)ccc2n1` [Example 16, N-[2-[(Dimethylamino)methyl]-6-quinolinyl]-4′-fluoro[1,1′-biphenyl]-4-carboxamide], which melting point is on record?
The melting point was 205 to 208 °C.

With `Cc1ccc(-c2ccc(C(=O)Nc3ccc4nc(CN(C)C)ccc4c3)cn2)cc1` [Example 17, N-[2-[(Dimethylamino)methyl]-6-quinolinyl]-6-(4-methylphenyl)nicotinamide] as the compound, how does the melting point read?
The melting point was 220 to 222 °C.

For `CC1CCN(c2ccc(C(=O)Nc3ccc4nc(CN5CCCC5)ccc4c3)cc2)CC1` [Example 21, 4-(4-Methyl-1-piperidinyl)-N-[2-(1-pyrrolidinylmethyl)-6-quinolinyl]benzamide], which melting point is on record?
The melting point was 200 to 202 °C.

With `O=C(Nc1ccc2nc(CN3CCCC3)ccc2c1)c1ccc(N2CCCCC2=O)cc1` [Example 22, 4-(2-Oxo-1-piperidinyl)-N-[2-(1-pyrrolidinylmethyl)-6-quinolinyl]benzamide] as the compound, how does the melting point read?
Its melting point is 210 to 212 °C.

Which melting point does the source give for `CN1CCN(Cc2ccc3cc(NC(=O)c4ccc(-c5ccc(Cl)cc5)cc4)ccc3n2)CC1` [Example 24, 4′-Chloro-N-[2-[(4-methyl-1-piperazinyl)methyl]-6-quinolinyl][1,1′-biphenyl]-4-carboxamide] here?
The melting point was 215 °C (dec.).

With `O=C(Nc1ccc2nc(CN3CCCC3)ccc2c1)N1CCC(c2ccc(F)cc2)CC1` [Example 38, 4-(4-Fluorophenyl)-N-[2-(1-pyrrolidinylmethyl)-6-quinolinyl]-1-piperidinecarboxamide] as the compound, how does the melting point read?
The melting point was 206 to 207 °C.

Which melting point does the source give for `O=C(Nc1ccc2nc(CN3CCCC3)ccc2c1)N1CCC(c2ccccc2)CC1` [Example 39, 4-Phenyl-N-[2-(1-pyrrolidinylmethyl)-6-quinolinyl]-1-piperidinecarboxamide] here?
The melting point was 187 to 189 °C.

With `O=C(Nc1ccc2nc(CN3CCCC3)ccc2c1)N1CCC(c2ccc(Cl)cc2)CC1` [Example 40, 4-(4-Chlorophenyl)-N-[2-(1-pyrrolidinylmethyl)-6-quinolinyl]-1-piperidinecarboxamide] as the compound, how does the melting point read?
Its melting point is 205 °C (dec.).

For `Cc1ccc(C2CCN(C(=O)Nc3ccc4nc(CN5CCCC5)ccc4c3)CC2)cc1` [Example 41, 4-(4-Methylphenyl)-N-[2-(1-pyrrolidinylmethyl)-6-quinolinyl]-1-piperidinecarboxamide], which melting point is on record?
The melting point was 214 to 216 °C.

With `COc1ccc(-c2ccc(C(=O)Nc3ccc4nc(CN5CCCC5)ccc4c3)cn2)cc1` [Example 42, 6-(4-Methoxyphenyl)-N-[2-(1-pyrrolidinylmethyl)-6-quinolinyl]nicotinamide] as the compound, how does the melting point read?
Its melting point is 210 °C (dec.).

With `O=C(Nc1ccc2nc(CN3CCCC3)ccc2c1)c1ccc(-c2ccccc2)cc1` [Example 43, N-[2-(1-Pyrrolidinylmethyl)-6-quinolinyl][1,1′-biphenyl]-4-carboxamide] as the compound, how does the melting point read?
Its melting point is 181 to 183 °C.

Which melting point does the source give for `O=C(Nc1ccc2nc(CN3CCCC3)ccc2c1)c1ccc(-c2ccc(Cl)cc2)nc1` [Example 44, 6-(4-Chlorophenyl)-N-[2-(1-pyrrolidinylmethyl)-6-quinolinyl]nicotinamide] here?
The melting point was 225 to 227 °C.

With `O=C(Nc1ccc2nc(CN3CCCC3)ccc2c1)c1ccc(-c2ccc(F)cc2)nc1` [Example 45, 6-(4-Fluorophenyl)-N-[2-(1-pyrrolidinylmethyl)-6-quinolinyl]nicotinamide] as the compound, how does the melting point read?
The melting point was 210 °C.

Which melting point does the source give for `Cc1ccc(-c2ccc(C(=O)Nc3ccc4nc(CN5CCCC5)ccc4c3)cn2)cc1` [Example 46, 6-(4-Methylphenyl)-N-[2-(1-pyrrolidinylmethyl)-6-quinolinyl]nicotinamide] here?
Its melting point is 207 to 209 °C.

With `O=C(Nc1ccc2nc(CN3CCCC3)ccc2c1)C1CCN(c2ccc(Cl)cc2)CC1` [Example 52, 1-(4-Chlorophenyl)-N-[2-(1-pyrrolidinylmethyl)-6-quinolinyl]-4-piperidinecarboxamide] as the compound, how does the melting point read?
The melting point was 204 to 206 °C.

With `O=C(Nc1ccc2nc(CN3CCCCC3)ccc2c1)c1ccc(-c2ccccc2)cc1` [Example 54, N-[2-(1-Piperidinylmethyl)-6-quinolinyl][1,1′-biphenyl]-4-carboxamide] as the compound, how does the melting point read?
The melting point was 186 to 188 °C.

For `Cc1ccc(-c2ccc(C(=O)Nc3ccc4nc(CN5CCCCC5)ccc4c3)cc2)cc1` [Example 55, 4′-Methyl-N-[2-(1-piperidinylmethyl)-6-quinolinyl][1,1′-biphenyl]-4-carboxamide], which melting point is on record?
Its melting point is 198 to 200 °C.

Which melting point does the source give for `COc1ccc(-c2ccc(C(=O)Nc3ccc4nc(CN5CCCCC5)ccc4c3)cc2)cc1` [Example 56, 4′-Methoxy-N-[2-(1-piperidinylmethyl)-6-quinolinyl][1,1′-biphenyl]-4-carboxamide] here?
The melting point was 192 to 194 °C.

For `O=C(Nc1ccc2nc(CN3CCCCC3)ccc2c1)c1ccc(-c2ccc(Cl)cc2)nc1` [Example 57, 6-(4-Chlorophenyl)-N-[2-(1-piperidinylmethyl)-6-quinolinyl]nicotinamide], which melting point is on record?
The melting point was 215 to 218 °C (dec.).

For `Cc1ccc(-c2ccc(C(=O)Nc3ccc4nc(CN5CCCCC5)ccc4c3)cn2)cc1` [Example 58, 6-(4-Methylphenyl)-N-[2-(1-piperidinylmethyl)-6-quinolinyl]nicotinamide], which melting point is on record?
The melting point was 206 to 207 °C (dec.).

With `O=C(Nc1ccc2nc(CN3CCCCC3)ccc2c1)c1ccc(-c2ccc(F)cc2)nc1` [Example 59, 6-(4-Fluorophenyl)-N-[2-(1-piperidinylmethyl)-6-quinolinyl]nicotinamide] as the compound, how does the melting point read?
Its melting point is 209 to 210 °C (dec.).

Which melting point does the source give for `COc1ccc(-c2ccc(C(=O)Nc3ccc4nc(CN5CCCCC5)ccc4c3)cn2)cc1` [Example 60, 6-(4-Methoxyphenyl)-N-[2-(1-piperidinylmethyl)-6-quinolinyl]nicotinamide] here?
The melting point was 210 to 211 °C (dec.).

Which melting point does the source give for `Cc1ccc(-c2ccc(C(=O)Nc3ccc4nc(CN5CCCC5)ccc4c3)cc2)cc1` [Example 61, 4′-Methyl-N-[2-(1-pyrrolidinylmethyl)-6-quinolinyl][1,1′-biphenyl]-4-carboxamide] here?
Its melting point is 192 to 193 °C.

For `COc1ccc(-c2ccc(C(=O)Nc3ccc4nc(CN5CCCC5)ccc4c3)cc2)cc1` [Example 62, 4′-Methoxy-N-[2-(1-pyrrolidinylmethyl)-6-quinolinyl][1,1′-biphenyl]-4-carboxamide], which melting point is on record?
The melting point was 197 to 199 °C.

With `O=C(Nc1ccc2nc(CN3CCCCC3)ccc2c1)N1CCC(c2ccc(Cl)cc2)CC1` [Example 63, 4-(4-Chlorophenyl)-N-[2-(1-piperidinylmethyl)-6-quinolinyl]-1-piperidinecarboxamide] as the compound, how does the melting point read?
Its melting point is 214 to 217 °C (dec.).
